The values below come from patent publication US11339171B2, “MDM2 inhibitors” (Gan & Lee Pharmaceuticals, priority 2017, dated 2022).

Molecules are shown by their SMILES.

The target in test [1] is T1, MDM2 (Homo sapiens, UniProt Q00987).
T1 construct: made in house
Kind of test: Inhibition test of MDM2-P53 (GST-MDM2, Biotin-P53, Anti-GST-Tb, SA-XL665). It counts as binding. An outline of the steps: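 Compounds, serially diluted 5-fold (twelve concentrations), were shaken for 90 min at 25° C with a mix of GST-MDM2 (4 nM final), Biotin-P53, anti-GST-Tb and SA-XL665. Buffer: 1×PBS, 0.1% BSA, 5 mM DTT, 1 mM AEBSF; signal read on a microplate reader.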

Test [2] relates to human osteosarcoma cell line SJSA-1. Kind of test: Inhibition of proliferation of human osteosarcoma cell line SJSA-1 (DAPI staining, In Cell Analyzer). The conditions noted are these: Homo sapiens, SJSA-1, 72 h, read-out: IC50 (nM), inhibitory activity on proliferation of human osteosarcoma cell line SJSA-1, SJSA-1, incubated 72 h.

T1 sequence (Q00987 whole entry): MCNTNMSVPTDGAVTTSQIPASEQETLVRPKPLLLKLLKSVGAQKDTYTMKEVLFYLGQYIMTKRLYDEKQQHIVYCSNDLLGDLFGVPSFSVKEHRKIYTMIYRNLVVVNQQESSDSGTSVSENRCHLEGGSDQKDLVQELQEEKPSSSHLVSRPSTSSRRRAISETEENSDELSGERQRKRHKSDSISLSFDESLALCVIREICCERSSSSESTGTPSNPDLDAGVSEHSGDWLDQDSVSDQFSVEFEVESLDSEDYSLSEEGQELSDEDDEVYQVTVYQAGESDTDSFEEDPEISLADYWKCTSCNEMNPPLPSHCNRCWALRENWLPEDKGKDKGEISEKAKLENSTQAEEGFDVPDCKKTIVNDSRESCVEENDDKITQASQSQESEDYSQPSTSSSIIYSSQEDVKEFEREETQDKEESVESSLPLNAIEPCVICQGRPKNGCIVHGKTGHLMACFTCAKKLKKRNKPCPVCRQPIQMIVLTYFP

For the compound `COc1nc(OCCF)ncc1-c1nc2c(n1C(C)C)[C@@]1(C(=O)Nc3cc(Cl)ccc31)N(c1cc(Cl)cnc1C)C2=O` [Example S-170, (S)-6-chloro-5′-(5-chloro-2-methylpyridin-3-yl)-2′-(2-(2-fluoroethoxy)-4-methoxypyrimidin-5-yl)-3′-isopropyl-3′H-spiro[dihydroindole-3,4′-pyrrolo[3,4-d]imidazole]-2,6′(5′H)-dione], the results for the IC50 in test [1] and in test [2] were 0.00186 µM and 131 nM, respectively.
As for `COc1nc(OCCF)ncc1-c1nc2c(n1C(C)C)[C@@]1(C(=O)Nc3cc(Cl)ccc31)N(c1cccc(Cl)c1)C2=O` [Example S-171, (S)-6-chloro-5′-(3-chlorophenyl)-2′-(2-(2-fluoroethoxy)-4-methoxypyrimidin-5-yl)-3′-isopropyl-3′H-spiro[dihydroindole-3,4′-pyrrolo[3,4-d]imidazole]-2,6′(5′H)-dione], the IC50 in test [1] came out at 0.00286 µM; in test [2], 379 nM.
Turning to `COc1nc(C(C)C)ncc1-c1nc2c(n1C(C)C)[C@@]1(C(=O)Nc3cc(Cl)ccc31)N(c1cc(Cl)ccc1C)C2=O` [Example S-172, (S)-6-chloro-5′-(5-chloro-2-methylphenyl)-3′-isopropyl-2′-(2-isopropyl-4-methoxypyrimidin-5-yl)-3′H-spiro[dihydroindole-3,4′-pyrrolo[3,4-d]imidazole]-2,6′(5′H)-dione], the IC50 came out at 0.00415 µM in test [1] and 53.3 nM in test [2].
As to `COc1cc(OCCF)ncc1-c1nc2c(n1C(C)C)[C@@]1(C(=O)Nc3cc(Cl)ccc31)N(c1cc(Cl)cnc1C)C2=O` [Example S-173, (S)-6-chloro-5′-(5-chloro-2-methylpyridin-3-yl)-2′-(6-(2-fluoroethoxy)-4-methoxypyridin-3-yl)-3′-isopropyl-3′H-spiro[dihydroindole-3,4′-pyrrolo[3,4-d]imidazole]-2,6′(5′H)-dione], the IC50 came out at 0.00139 µM in test [1] and 217 nM in test [2].
On the same counts, the results for `COc1nc(C2CC2)ncc1-c1nc2c(n1C(C)C)[C@@]1(C(=O)Nc3cc(Cl)ccc31)N(c1cc(F)cc(Cl)c1)C2=O` [Example S-174, (S)-6-chloro-5′-(3-chloro-5-fluorophenyl)-2′-(2-cyclopropyl-4-methoxypyrimidin-5-yl)-3′-isopropyl-3′H-spiro[dihydroindole-3,4′-pyrrolo[3,4-d]imidazole]-2,6′(5′H)-dione] are 0.00412 µM and 93.5 nM.
The like results for `COc1cc(OC)c(-c2nc3c(n2C(C)C)[C@@]2(C(=O)Nc4cc(Cl)ccc42)N(c2cc(F)cc(Cl)c2)C3=O)cn1` [Example S-175, (S)-6-chloro-5′-(3-chloro-5-fluorophenyl)-2′-(4,6-dimethoxypyridin-3-yl)-3′-isopropyl-3′H-spiro[dihydroindole-3,4′-pyrrolo[3,4-d]imidazole]-2,6′(5′H)-dione] were, in that order, 0.00196 µM and 49.2 nM.
On the same counts, the results for `COc1cc(C2CC2)ncc1-c1nc2c(n1C(C)C)[C@@]1(C(=O)Nc3cc(Cl)ccc31)N(c1cc(F)cc(Cl)c1)C2=O` [Example S-176, (S)-6-chloro-5′-(3-chloro-5-fluorophenyl)-2′-(6-cyclopropyl-4-methoxypyridin-3-yl)-3′-isopropyl-3′H-spiro[dihydroindole-3,4′-pyrrolo[3,4-d]imidazole]-2,6′(5′H)-dione] are 0.00176 µM and 28.8 nM.
For the compound `COc1cc(OCCF)ncc1-c1nc2c(n1C(C)C)[C@@]1(C(=O)Nc3cc(Cl)ccc31)N(c1cccc(Cl)c1)C2=O` [Example S-177, (S)-6-chloro-5′-(3-chlorophenyl)-2′-(6-(2-fluoroethoxy)-4-methoxypyridin-3-yl)-3′-isopropyl-3′H-spiro[dihydroindole-3,4′-pyrrolo[3,4-d]imidazole]-2,6′(5′H)-dione], the IC50 in test [1] turned out to be 0.00237 µM; in test [2] it was 421 nM.
For the compound `CCOc1ncc(-c2nc3c(n2C(C)C)[C@@]2(C(=O)Nc4cc(Cl)ccc42)N(c2cc(F)cc(Cl)c2)C3=O)c(OC)n1` [Example S-180, (S)-6-chloro-5′-(3-chloro-5-fluorophenyl)-2′-(2-ethoxy-4-methoxypyrimidin-5-yl)-3′-isopropyl-3′H-spiro[dihydroindole-3,4′-pyrrolo[3,4-d]imidazole]-2,6′(5′H)-dione], the IC50 in test [1] is 0.0046 µM; in test [2], 56.8 nM.
